{"source": "paper PMC5011688", "about": "“Polysaccharide enhances Radix Saposhnikoviae efficacy through inhibiting chromones decomposition in intestinal tract” (Scientific Reports, 2016)", "key": {"[1]": {"assay": "Metabolism study of PGCN and GML in simulated intestinal fluid (SIF)", "assay_type": "in vitro ADME", "details": "SIF pH 6.8, 37 °C, 2 h", "method": "(§1) Simulated gastric fluid (SGF, pH 1.2) and simulated intestinal fluid (SIF, pH 6.8) were prepared based on Chinese Pharmacopeia (2010) and have been depicted previously. 100 μg PGCN or GML was added to 4 ml of either SGF or SIF to yield 4 reaction systems, i.e., PGCN/SGF (213.47 nM), PGCN/SIF (213.47 nM), GML/SGF (220.99 nM), GML/SIF (220.99 nM), respectively. Polysaccharides extracted in RS were added to these 4 reaction systems in accordance with the actual chromone-polysaccharide proportion, with each reaction further became three sub-systems, i.e., 0 polysaccharide/chrome, 1/2 polysaccharide/chromone, and pan-polysaccharide/chromone. Meanwhile, these 12 systems were allowed to react at 37 °C. Following 2 h, the reaction was stopped by 100 °C boiling for 10 min. Subsequently, these systems were evaporated to dryness and the residue was reconstituted in 1 ml methanol. After centrifugation at 3,000 rpm for 10 min, the supernatant was collected and used for HPLC analysis."}, "[2]": {"assay": "Metabolism study of PGCN and GML in simulated gastric fluid (SGF)", "assay_type": "in vitro ADME", "details": "SGF pH 1.2, 37 °C, 2 h", "method": "as §1"}, "[3]": {"test_system": "Caco-2 cell monolayers", "assay": "Caco-2 bidirectional transport assay of cimifugin", "assay_type": "in vitro ADME", "details": "for effect on flux/transport of cimifugin across Caco-2 monolayers: pretreatment or co-application with cimifugin, A→B flux, similar for B→A", "method": "Caco-2 cells were obtained from the American Type Culture Collection (ATCC). […] For the permeability test, cells were seeded in transwell supports with polycarbonate membrane (0.4 μm, 1.12 cm^2, Corning Costar) at a density of 6 × 10^4 cells/cm^2. The integrity of the monolayers was tested by measuring the transepithelial electrical resistance (TEER) before and after every experiment. Only monolayers with TEER >200 Ω/cm^2 were used. Test compounds in transport buffer were added to the donor compartments of either apical (A → B) or basolateral (B → A) wells of the Insert System and incubated at 37 °C. Samples were collected at 0, 30, 60, 90, 120, and 150 min time points and analyzed for HPLC analysis of content of cimifugin as described above."}, "[4]": {"assay": "Transport of chromones across semi-permeable membrane (dialysis bag) with or without RS polysaccharide", "assay_type": "physicochemical", "details": "6 h; for total chromone: inside plus outside the membrane; for total chromone / Fluid inside the semi-permeable membrane, chromone / Fluid outside the semi-permeable membrane, chromone: pH 7.8, 37 °C; for Fluid inside the semi-permeable membrane, chromone / Fluid outside the semi-permeable membrane, chromone: sum of PGCN and cimifugin", "method": "Dialysis bags made by semi-permeable membrane materials were used in this analysis. ~3 cm long dialysis bags were first processed as the following procedures in succession: 1) boiled for 5 min in distilled water; 2) rinsed by 60 °C water for 2 min; 3) rinsed by small intestine buffer for 2 min; 4) rinsed by small intestine buffer for 2 min; 5) immersed in buffer at 4 °C. After 12 h, these processed dialysis bags were tied tightly at one end to form a dialysis bag. 1 ml small intestine buffer (pH 7.8) containing cimifugin, PGCN, cimifugin + polysaccharide, or PGCN + polysaccharide was added into this bag and a glass bead was put in to keep this bag vertical. When the other end was tied (an air bubble was retained), this dialysis bag was suspended in 15 ml small intestine buffer. This system was left to stand for 6 h in 37 °C water bath and chromone content inside and outside of this semi-permeable membrane was measured by HPLC analysis."}, "[5]": {"assay": "Pharmacokinetic measurement of chromone (cimifugin in rat plasma after oral chromone extracts)", "assay_type": "in vivo, Sprague-Dawley rats", "details": "for Tmax: male, Sprague-Dawley, rat, plasma, po, 4 g crude drug/kg, oral chromone extracts 4 g crude drug/kg for 5 days, plasma HPLC", "method": "To explore the influence of RS polysaccharide on the pharmacokinetics of chromones, 2.11 g, 1.05 g RS polysaccharide, and 2.11 g glucuronic acid were added to the three aliquots of chromone components, with one aliquot left as control. Thus, totally four test compounds were obtained, including chromone/pan-polysaccharide (CP), chromone/1/2polysaccharide (CHP), chromone/glucuronic acid (CG), and chromone, which served as control. Forty male Sprague-Dawley rats were used in this experiment. They were randomly divided into 4 groups, each consisting of 10 rats. The rats in these four groups were orally administered with CP, CHP, CG and chromones at the dose of 4 g crude drug (equivalent to 10 ml RS extracts) per kg body weight, respectively for five consecutive days. After the final drug delivery of day 5 (at 0.5, 1, 1.5, 2, 3, 5, 8, 12, 16, and 24 h/day), rats were anesthetized by ether inhalation and rat blood samples were obtained from the orbit vein and centrifuged immediately at 3,000 rpm for 10 min to yield plasma. Each plasma sample (100 μl) was mixed with 20 μl of 70% perchloric acid and vortexed and centrifuged at 3,000 rpm for 10 min. The supernatant were subjected to 0.45 μm microporous membrane and the filtrate was collected for subsequent high performance liquid chromatography (HPLC) analysis. Chromatographic separation and analysis using an L-2000 Elite HPLC system has been previously reported. Briefly, the separation of the analytes were performed on a Kromasil C18 column (200 mm × 4.6 mm i.d., particle size 5 μm), equipped with a Shim-pack security guard column at a column temperature of 25 °C. The binary mobile phase consisted of methanol and water. A flow rate of 1.0 ml/min with a gradient elution program as follows: 40–45% methanol at 0–5 min; 45–60% methanol at 5–10 min; 60–80% methanol at 10–15 min; 80–95% methanol at 15–20 min; 95–40% methanol at 20–30 min. The injection volume was 20 μl and detection wavelength was kept at 254 nm."}, "[6]": {"assay": "Transformation of cimifugin in small intestine enzyme solution", "assay_type": "in vitro ADME, Sprague-Dawley rats", "details": "38 °C", "method": "Small intestine segment was taken from ten 12 h-fasting male Sprague-Dawley rats. The intestine tissue was first frozen at −80 °C for 12 h, and then ground and centrifuged at 10,000 rpm for 10 min. The supernatant constituted the enzyme solution used in the experiment. To explore the influence of RS polysaccharide on the metabolism of cimifugin, three groups were designed: control group containing 40 μg cimifugin in 1.2 ml enzyme solution; RS polysaccharide/cimifugin group containing 40 μg cimifugin and 8.7 mg RS polysaccharide in 1.2 ml enzyme solution; glucuronic acid/cimifugin group containing 40 μg cimifugin and 8.7 mg glucuronic acid in 1.2 ml enzyme solution. These groups were put in 38 °C water bath for reaction, while samples were taken at 15 and 30 min. After deproteinization by methanol, these samples were centrifuged at 10,000 rpm for 10 min. Subsequently, the supernatant was collected and analyzed for HPLC analysis as described above."}, "[7]": {"details": "small intestine buffer pH 7.8, 37 °C, mean ± SD, n = 10"}, "[8]": {"details": "apical application (A→B), A: cimifugin, B: polysaccharide, C: LY335979, D: troleandomycin, mean ± SD, n = 10"}, "[9]": {"details": "basolateral application (B→A), A: cimifugin, B: polysaccharide, C: LY335979, D: troleandomycin, mean ± SD, n = 10"}}, "note": "Read-outs that look alike come from different tables or passages of the source.", "data": [{"smiles": "COc1c2c(cc3oc(C)cc(=O)c13)OC(C(C)(C)OC1OC(CO)C(O)C(O)C1O)C2", "note": "[GML, 4′-O-β-D-glucosyl-5-O-methylvisamminol]", "values": [{"measurement": "transformation in SIF (in words)", "setting": "[1]", "result": "underwent no change"}, {"measurement": "HPLC peak area, GML", "setting": "[1]; mean ± SD, n = 10", "result": "1369720 ± 112480"}, {"measurement": "transformation in SGF (in words)", "setting": "[2]", "result": "a little GML was converted into PGCN"}, {"measurement": "HPLC peak area, GML", "setting": "[2]; mean ± SD, n = 10", "result": "1369608 ± 83550"}]}, {"smiles": "Cl.Cl.Cl.O[C@@H](COc1cccc2ncccc12)CN1CCN([C@@H]2c3ccccc3[C@@H]3[C@H](c4ccccc42)C3(F)F)CC1", "note": "[LY335979, Zosuquidar Trihydrochloride, reference compound]", "values": [{"measurement": "effect on flux/transport of cimifugin across Caco-2 monolayers", "setting": "[3]", "result": "not affected"}]}, {"smiles": "COc1c2c(cc3oc(COC4OC(CO)C(O)C(O)C4O)cc(=O)c13)OC(C(C)(C)O)C2", "note": "(centres unmarked) [PGCN, prime-O-glucosylcimifugin]", "values": [{"measurement": "transformation in SIF (in words)", "setting": "[1]", "result": "an overwhelmingly large amount of PGCN was transformed into cimifugin"}, {"measurement": "HPLC peak area, PGCN", "setting": "[1]; mean ± SD, n = 10", "result": "5159 ± 1238"}, {"measurement": "total chromone", "setting": "[4]", "result": "105.0 ± 0.1", "unit": "nmol"}, {"measurement": "Fluid inside the semi-permeable membrane, PGCN", "setting": "[4]; [7]", "result": "15.2 ± 0.5", "unit": "nmol"}, {"measurement": "Fluid outside the semi-permeable membrane, PGCN", "setting": "[4]; [7]", "result": "89.8 ± 0.4", "unit": "nmol"}, {"measurement": "Fluid inside the semi-permeable membrane, chromone", "setting": "[4]", "result": "15.2 ± 0.5", "unit": "nmol"}, {"measurement": "Fluid outside the semi-permeable membrane, chromone", "setting": "[4]", "result": "89.8 ± 0.4", "unit": "nmol"}, {"measurement": "transformation in SGF (in words)", "setting": "[2]", "result": "a small amount of PCGN was converted into cimifugin"}]}, {"smiles": "COc1c2c(cc3oc(CO)cc(=O)c13)O[C@H](C(C)(C)O)C2", "note": "[cimifugin]", "values": [{"measurement": "Tmax", "setting": "[5]; read-out: Tmax of cimifugin in rat plasma (first peak of double-peak curve)", "result": 1.5, "unit": "h"}, {"measurement": "Tmax", "setting": "[5]; read-out: Tmax of cimifugin in rat plasma (second peak of double-peak curve)", "result": 8, "unit": "h"}, {"measurement": "detection in plasma of chromone treated rats (HPLC qualitative analysis)", "setting": "[5]; whole process of the experiment, data not shown", "result": "only cimifugin was detected"}, {"measurement": "stability in small intestine enzyme solutions (in words)", "setting": "[6]; rat small intestine enzyme solution", "result": "underwent degradation to a great extent"}, {"measurement": "Basolateral content of cimifugin, 30 min", "setting": "[3]; [8]", "result": "15.21 ± 2.34", "unit": "ng"}, {"measurement": "Basolateral content of cimifugin, 60 min", "setting": "[3]; [8]", "result": "30.85 ± 3.64", "unit": "ng"}, {"measurement": "Basolateral content of cimifugin, 90 min", "setting": "[3]; [8]", "result": "143.92 ± 12.32", "unit": "ng"}, {"measurement": "Basolateral content of cimifugin, 120 min", "setting": "[3]; [8]", "result": "236.01 ± 22.86", "unit": "ng"}, {"measurement": "Basolateral content of cimifugin, 150 min", "setting": "[3]; [8]", "result": "201.33 ± 15.32", "unit": "ng"}, {"measurement": "Apical content of cimifugin, 30 min", "setting": "[3]; [9]", "result": "26.87 ± 1.54", "unit": "ng"}, {"measurement": "Apical content of cimifugin, 60 min", "setting": "[3]; [9]", "result": "50.45 ± 2.27", "unit": "ng"}, {"measurement": "Apical content of cimifugin, 90 min", "setting": "[3]; [9]", "result": "234.35 ± 11.36", "unit": "ng"}, {"measurement": "Apical content of cimifugin, 120 min", "setting": "[3]; [9]", "result": "354.24 ± 15.47", "unit": "ng"}, {"measurement": "Apical content of cimifugin, 150 min", "setting": "[3]; [9]", "result": "289.46 ± 15.45", "unit": "ng"}, {"measurement": "total chromone", "setting": "[4]", "result": "161.7 ± 0.5", "unit": "nmol"}, {"measurement": "Fluid inside the semi-permeable membrane, cimifugin", "setting": "[4]; [7]", "result": "18.1 ± 0.6", "unit": "nmol"}, {"measurement": "Fluid outside the semi-permeable membrane, cimifugin", "setting": "[4]; [7]", "result": "143.6 ± 0.1", "unit": "nmol"}, {"measurement": "Fluid inside the semi-permeable membrane, chromone", "setting": "[4]", "result": "18.1 ± 0.6", "unit": "nmol"}, {"measurement": "Fluid outside the semi-permeable membrane, chromone", "setting": "[4]", "result": "143.6 ± 0.1", "unit": "nmol"}]}, {"smiles": "O=C[C@H](O)[C@@H](O)[C@H](O)[C@H](O)C(=O)O", "note": "[glucuronic acid, Glucuronic acid, reference compound]", "values": [{"measurement": "effect on absorption of chromone in the form of cimifugin (AUC at 3 h and later)", "setting": "[5]; co-administered orally with chromone extract, rat plasma", "result": "did not affect"}, {"measurement": "effect on cimifugin degradation / transformation into PGCN in small intestine enzyme solutions (in words)", "setting": "[6]; added to cimifugin in enzyme solution", "result": "did not produce any effect on cimifugin transformation"}]}, {"smiles": "CO[C@H]1C[C@H](O[C@H]2[C@H](C)[C@@H](O[C@@H]3O[C@H](C)C[C@H](N(C)C)[C@H]3OC(C)=O)[C@@H](C)C[C@@]3(CO3)C(=O)[C@H](C)[C@@H](OC(C)=O)[C@@H](C)[C@@H](C)OC(=O)[C@@H]2C)O[C@@H](C)[C@@H]1OC(C)=O", "note": "[troleandomycin, Troleandomycin, reference compound]", "values": [{"measurement": "effect on flux/transport of cimifugin across Caco-2 monolayers", "setting": "[3]", "result": "significantly enhanced"}]}]}
